{
  "source": "patent US20190227072A1",
  "about": "“Biomarkers for Carcinogenesis and Uses Thereof” (GEORGETOWN UNIVERSITY, priority 2016, published 2019)",
  "key": {"HepG2 cells": {"test_system": "HepG2 cells", "assay": "DHHεdA formation in HepG2 cellular DNA after EH or AA treatment, LC-MS/MS-MRM", "format": "cell-based, human", "settings": "24 h", "method": "HepG2 cells (#HB-8065, ATCC, Manassas, Va.) were grown in complete DMEM (#10-013, Corning Life Sciences, Tewksbury, Mass.) until 85-90% confluent. Cells were treated with a final concentration of 100 μM or 300 μM of either arachidonic acid (AA) or EH solubilized in 70% EtOH for 24 h. Cells were then scraped down in media and transferred to a centrifuge tube and spun for 3000 rpm for 5 min. The pellet was washed 2× with 1×PBS, centrifuging between washes. DNA was then isolated from the cells and prepared for LC-MS/MS-MRM, after enzymatic hydrolysis as described above.\nDNA was isolated by a QIAGEN Blood and Cell Culture DNA Maxi Kit (#13362, QIAGEN Inc., Valencia, Calif.) using the protocol recommended by the manufacturer. For hydrolysis, dry DNA (50 to 1000 μg) was dissolved in 5 mM magnesium chloride and 0.5 mM GSH solution (1 mL per 1 mg of DNA), then 50 fmol of [^15N5]-DHHεdA 1,2 and 50 fmol of [^15N5]-DHHεdA 3,4 were added as internal standards. DNA was hydrolyzed by incubation with DNase I (1300 units per mg of DNA, #D4527-40KU, Sigma-Aldrich, St. Louis, Mo.) for 30 min at 37° C., followed by a second addition of DNase I (1300 units per mg of DNA) and incubation for an additional 10 min at 37° C. Finally, phosphodiesterase I (0.06 units per mg DNA, #P3243-1VL, Sigma-Aldrich, St. Louis, Mo.), alkaline phosphatase (380 units per mg DNA, #10 108 146 001, Roche Diagnostic GmbH, Mannheim, Germany) and adenosine deaminase (0.5 units, #LS009043, Worthington Biochemical Corporation, Lakewood, N.J.) were added and the sample was incubated for 60 min at 37° C. After hydrolysis, a small portion of the hydrolysate was saved for further T quantification, and the remaining sample was purified using Phenomenex Strata-X 33μ 30 mg/1 mL polymeric reverse phase solid phase extraction columns (#8B-S100-TAK, Phenomenex, Torrance, Calif.). Before loading, samples columns were washed by ACN (3×1 mL) and stabilized by 25 mM ammonium formate pH=4.00 (3×1 mL). After loading, DNA hydrolysate columns were washed by 2.5% ACN in 25 mM ammonium formate pH=4.00 (1×1 mL), 5% ACN in 25 mM ammonium formate pH=4.00 (1×1 mL), followed by DHHεdA collection by 30% ACN in 25 mM ammonium formate pH=4.00 (1×1 mL). The DHHεdA fraction was dried using a SpeedVac rotary concentrator, re-dissolved in 400 μL 1:1 water:ACN, transferred to HPLC vials, dried and kept at −20° C. Before quantification, samples were dissolved in 60 μL of water and 37 μL was injected on LC-MS.\nQuantification was carried out on a SCIEX 6500 QTRAP triple quadrupole mass spectrometer (AB Sciex LLC, Framingham, Mass.) interfaced with a Waters ACQUITY UPLC liquid chromatography system equipped with Waters ACQUITY UPLC BEH C18 50×2.1 mm, 1.7 μm particle size column (Waters Corporation, Milford, Mass.). The separation of adducts was performed isocratically by eluting with 13.5% ACN, 1 mM ammonium formate buffer over 6.5 min using 0.5 mL/min flow rate at 40° C., followed by 100% ACN wash. The ESI source operated in positive mode. The MRM experiment was performed using ion transitions of 406.2-290.2 m/z (DHHεdA) and 411.2-295.1 m/z ([^15N5]-DHHεdA) with CE of 28 eV for quantification, and those of 406.2-160.1 m/z (DHHεdA) and 411.2-165.0 m/z ([^15N5]-DHHεdA) with a CE of 76 eV were used for structural confirmation. All other parameters were optimized to achieve maximum signal intensity. Calibration curves were constructed for two HPLC resolved peaks before each analysis using standard solutions of DHHεdA and [^15N5]-DHHεdA. A constant concentration of [^15N5]-DHHεdA (1 fmol/μL) was used with different concentrations of DHHεdA (3.3 amol/μL-65 fmol/μL) and analyzed using 37 μL injections by LC-MS/MS-MRM. The standard curves were linear in the range from 0.37 to 800 fmol of DHHεdA on column for both peaks (1/x weighting; r^2=0.9998 and r^2=0.9984 for both LC resolved pairs of DHHεdA stereoisomers 1,2 and 3,4 respectively). […]"}, "[1]": {"test_system": "Primary human hepatocytes", "assay": "FACS detection of DHHεdA in nuclei of EH-treated primary human hepatocytes", "format": "cell-based", "settings": "300 μM EH", "method": "Primary human hepatocytes (#HUFS1M, Lot#HUM4132, Triangle Research Labs, Durham, N.C.) were cultured in hepatocyte media (#5201, ScienCell Research Laboratories, San Diego, Calif.) until 85-90% confluent. Cells were then treated with a final concentration of 300 μM EH dissolved in 70% EtOH, added to the culture media. The cells were collected at the designated time points following EH treatment: 0, 4, 8, 12 and 24 h. The nuclei were extracted using Nuclei EZ Prep Nuclei Isolation Kit (#NUC-101, Sigma-Aldrich, St. Louis, Mo.) and fixed with 3.7% formaldehyde for 10 min. The nuclei were then prepared for FACS analysis using the method shown previously.\nThe geometric mean of the fluorescence intensity of Alexa Fluor 488-labeled DHHεdA positive cells was measured using FACS. The output values of triplicate control and EH treatment groups (see above) were averaged and the standard deviation was calculated using Excel. Additionally, a Student's t-test was performed to determine significance by comparing the triplicate values for the control group to those of the EH treated group for each individual time point of 4, 8, 12, and 24 h."}, "Xpa−/− mice [2]": {"test_system": "Xpa−/− mice", "assay": "72-week tumor bioassay of Xpa−/− mice fed antioxidant diets", "format": "in vivo", "settings": "72 weeks on diet, control diet 100%", "text": "C3H/HeN.Xpa^−/− mice were created by crossing C57/B6. Xpa^−/− mice with C3H/HeN mice. The resulting heterozygous mice were then backcrossed to C3H mice for five generations. Mice homogeneous for the Xpa-null allele on a C3H background were subsequently generated by brother-sister mating. All of the mice were housed in a temperature-controlled, light-regulated space with 12-hour light and dark cycles and were given unrestricted access to food and water throughout the experiments. […] The animals were fed with AIN-76A powder diets obtained from Dyets, Inc. (Bethlehem, Pa.) at the age of 4 weeks; four types of diets (control, α-lipoic acid, Theaphenon E and vitamin-E) were used in this study. The only difference between the diets is the sucrose content to be replaced by the antioxidant (Table 1: the doses of the antioxidants, α-lipoic acid (2 g/kg), Theaphenon E (20 g/kg) and vitamin E (1.8 g/kg)), were selected according to recent studies, respectively. The nutrition for all the four diets was calculated within the range of 3694 to 3766 kcal/kg. (n=6-7 for time dependent DNA adduct assay, n=18-19 for tumor bioassay after 72 weeks under different diets (see Table 4)). […] Xpa^−/− mice were fed with four types of diets (control, Theaphenon E, α-lipoic acid, and vitamin E) for 72 weeks."}, "Xpa−/− mice [3]": {"test_system": "Xpa−/− mice", "assay": "32-week bioassay of Xpa−/− mice fed antioxidant diets, γ-OHPdG by LC-MS/MS", "format": "in vivo", "settings": "for liver γ-OHPdG levels: antioxidant diet vs control diet, liver DNA, LC-MS/MS; for γ-OHPdG levels in the lungs: antioxidant diet, lung (non-target organ)", "text": "All of the mice were housed in a temperature-controlled, light-regulated space with 12-hour light and dark cycles and were given unrestricted access to food and water throughout the experiments. […] The animals were fed with AIN-76A powder diets obtained from Dyets, Inc. (Bethlehem, Pa.) at the age of 4 weeks; four types of diets (control, α-lipoic acid, Theaphenon E and vitamin-E) were used in this study. The only difference between the diets is the sucrose content to be replaced by the antioxidant (Table 1: the doses of the antioxidants, α-lipoic acid (2 g/kg), Theaphenon E (20 g/kg) and vitamin E (1.8 g/kg)), were selected according to recent studies, respectively. The nutrition for all the four diets was calculated within the range of 3694 to 3766 kcal/kg. […] The liver tissues were dissected and kept at −80° C. until usage for DNA isolation.\nDNA (100-500 μg) was dissolved in 5 mM magnesium chloride (800 μL per mg DNA) and spiked with 100 fmol of [^13C10,^15N5]-γ-OHPdG and 50 fmol of [^13C10,^15N5]−/− OHPdG. Enzymatic hydrolysis was performed by incubation with DNase I (1300 units/mg DNA) at 37° C. for 30 min followed by a second addition of DNase I (1300 units/mg DNA). After an additional 10 min at 37° C., alkaline phosphatase (380 units/mg DNA), phosphodiesterase I (0.06 units/mg DNA) and adenosine deaminase (0.5 units) were added, and the mixture was incubated for 1 h. After digestion a small aliquot of hydrolysate was used for dG quantification and the remaining digest was purified by solid phase extraction (SPE) using polymeric C18, 30 mg/1 mL, Strata-X columns (Phenomenex, Inc., Torrance, Calif.). Prior to use, the columns were conditioned by ACN (3×1 mL) and 25 mM ammonium formate buffer pH=4 (3×1 mL). After sample loading, the columns were washed with 2.5% ACN in 25 mM ammonium formate buffer pH=4 (1×1 mL). Then, γ-OHPdG adducts were collected by eluting with 5% ACN in 25 mM ammonium formate buffer pH=4 (1×1 mL). Samples were dried over vacuum using a SpeedVac and kept at −80° C. Before quantification assay samples were reconstituted with 50 μl of water, and 37 μL of sample was injected onto LC-MS/MS.\nDetection and quantification of γ-OHPdG adducts was carried on AB SCIEX 6500 QTrap triple quadrupole mass spectrometer (SCIEX, Framingham, Mass.) coupled with an ACQUITY UPLC liquid chromatography system (Waters Corporation, Milford, Mass.) equipped with 50×2.1 mm, 1.7 m particle size C18 column (Waters ACQUITY UPLC BEH C18). The separation of adducts was performed isocratically by eluting with 3% ACN, 1 mM ammonium formate buffer over 3.5 min using 0.5 mL/min flow rate at 40° C., followed by 100% ACN wash. The ESI source operated in positive mode. The multiple reaction monitoring (MRM) experiment was performed using ion transitions of 324.2-208.1 m/z (γ-OHPdG) and 339.2-218.1 m/z ([^13C10,^15N5]-γ-OHPdG) with a collision energy (CE) of 20 eV for quantification, and those of 324.2-190.1 m/z (γ-OHPdG) and 339.2-200.1 m/z ([^13C10,^15N5]-γ-OHPdG) with a CE of 47 eV for structural confirmation. All other parameters were optimized to achieve maximum signal intensity."}},
  "note": "Entries after “also recorded” stand apart in the source; their conditions may differ.",
  "data": [
    {"molecule": "CCCCC/C=C\\C/C=C\\C/C=C\\C/C=C\\CCCC(=O)O", "note": "[AA, arachidonic acid]", "values": [
      {"measurement": "DHHεdA peak 1", "setting": "HepG2 cells; HepG2, low dose (100 μM)", "value": "bdl"},
      {"measurement": "DHHεdA peak 2", "setting": "HepG2 cells; HepG2, low dose (100 μM)", "value": "bdl"},
      {"measurement": "Total DHHεdA", "setting": "HepG2 cells; HepG2, low dose (100 μM)", "value": "bdl"}
    ]},
    {"molecule": "CCCCCC(O)C1OC1C=O", "note": "(centres unmarked) [EH, 2,3-epoxy-4-hydroxynonanal]", "values": [
      {"measurement": "DHHεdA peak 1", "setting": "HepG2 cells; human, 100 μM", "value": 14.1, "unit": "adducts/T × 10^9"},
      {"measurement": "DHHεdA peak 2", "setting": "HepG2 cells; human, 100 μM", "value": 139.4, "unit": "adducts/T × 10^9"},
      {"measurement": "Total DHHεdA", "setting": "HepG2 cells; human, 100 μM", "value": 153.5, "unit": "adducts/T × 10^9"},
      {"measurement": "DHHεdA peak 1", "setting": "HepG2 cells; human, 300 μM", "value": 186.6, "unit": "adducts/T × 10^9"},
      {"measurement": "DHHεdA peak 2", "setting": "HepG2 cells; human, 300 μM", "value": 2043.8, "unit": "adducts/T × 10^9"},
      {"measurement": "Total DHHεdA", "setting": "HepG2 cells; human, 300 μM", "value": 2230.4, "unit": "adducts/T × 10^9"},
      {"measurement": "cell death", "setting": "[1]; 24 h", "value": "less than 20%"},
      {"measurement": "mean fluorescence intensity of DHHεdA in nuclei (FACS, 3C9C9)", "setting": "[1]; 4, 8, 12 and 24 h vs control", "value": "significant difference between control and EH treated cells for every time point"}
    ]},
    {"molecule": "O=C(O)CCCCC1CCSS1", "note": "(stereo not drawn) [α-lipoic acid]", "values": [
      {"measurement": "HCC incidence", "setting": "Xpa−/− mice [2]", "value": 65, "unit": "%"},
      {"measurement": "liver γ-OHPdG levels", "setting": "Xpa−/− mice [3]", "value": "effectively decreased; also recorded: significant decrease"},
      {"measurement": "γ-OHPdG levels in the lungs", "setting": "Xpa−/− mice [3]", "value": "no significant changes"}
    ]},
    {"molecule": "vitamin E", "values": [
      {"measurement": "HCC incidence", "setting": "Xpa−/− mice [2]", "value": "no significant effect"},
      {"measurement": "liver γ-OHPdG levels", "setting": "Xpa−/− mice [3]", "value": "but not vitamin E, effectively decreased; also recorded: significant decrease"},
      {"measurement": "γ-OHPdG levels in the lungs", "setting": "Xpa−/− mice [3]", "value": "no significant changes"}
    ]}
  ]
}
